Laboratory results: patent US8452543B2, “High throughput screening for antimicrobial dosing regimens” (priority 2005, dated 2013)
Converted amounts (≈) assume the structure as drawn. Like-named read-outs stand apart in the source and are kept apart here.

Legend:
[1] = system: P. aeruginosa PA 27853 and resistant isolates MR1, MR2, MR3; test: microbe, parasite or virus in culture; type: cell-based, Pseudomonas aeruginosa; conditions: for MIC: Pseudomonas aeruginosa
Experimental: Minimum inhibitory concentration (MIC)/minimum bactericidal concentration (MBC) were determined in Ca-MHB using a modified macrobroth dilution method as described by the CLSI (10). The final concentration of bacteria in each macrobroth dilution tube was approximately 5×10^5 cfu/ml of Ca-MHB. Serial twofold dilutions of meropenem were used. […] Samples (50 μl) from clear tubes and the cloudy tube with the highest drug concentration were plated on Mueller-Hinton agar (MHA) plates (Hardy Diagnostics, Santa Maria, Calif.). […] Drug carry-over effect was assessed by visual inspection of the distribution of colonies on media plates. The studies were conducted in duplicate and repeated at least once on a separate day.

P. aeruginosa ATCC 27853 = test: Time-kill studies and growth dynamics model, meropenem; type: cell-based, Pseudomonas aeruginosa; conditions: for EC50: read-out: Ck50 (the source's name)
Experimental: Time-kill studies were conducted with different and escalating meropenem concentrations. […] An overnight culture of the isolate was diluted 30-fold with pre-warmed Ca-MHB and incubated further at 35 8 C until reaching late log phase growth. The bacterial suspension was diluted with Ca-MHB accordingly based on absorbance at 630 nm; 15 mL of the suspension was transferred to 50 mL sterile conical flasks each containing 1 mL of an antimicrobial agent solution at 16 the target concentration. The final concentration of the bacterial suspension in each flask was 1×10^8 cfu/mL. The high inoculum used was to simulate the bacterial load in severe infection, and to allow resistant sub-population(s) to be present at baseline. The experiment was conducted for 24 h in a shaker water bath set at 35 8 C. Serial samples in duplicate were obtained from each flask over 24 h, at 0 (baseline), 2, 4, 8, 12, and 24 h, to characterize the effect of various meropenem concentrations on the total bacterial population. Prior to culturing the bacteria quantitatively, the bacterial samples (0.5 mL) were centrifuged at 10000 g for 15 min, and reconstituted with sterile normal saline to their original volumes in order to minimize drug carry-over effect. Total bacterial populations were quantified by spiral plating 10 serial dilutions of the samples ([…]) onto MHA plates. The media plates were incubated in a humidified incubator (35 8 C) for 18-24 h, and the bacterial density from each sample was determined by CASBA-4 colony scanner/software (Spiral Biotech, Bethesda, Md., USA). The theoretical lower limit of detection was 400 cfu/mL.
The time courses of bacterial burden under different drug exposures is described using a mathematical model. The population balance for a bacterial population is determined by: Rate of change of bacterial population over time=intrinsic growth rate−kill rate by antimicrobial agent or
In contrast to the conventional approach in which the final observed effects are modelled, information over time was utilized to develop a dynamic model system that would capture bacterial growth/killing rates. The starting point was a mathematical model describing the time course of bacterial burden [biological response, N(t)] under the influence of various antimicrobial agent concentrations C(t). The rate of change of bacteria over time was expressed as the difference between the intrinsic bacterial growth rate and the kill rate provided by the antimicrobial agent (Eq. 35). Based on previous studies, a linear bacterial growth rate was adopted. Additional model parameters were used to account for other physiological phenomena such as contact inhibition (using a maximum population size) and non-linear (sigmoidal) kill rate to account for target site saturation. Regrowth was attributed to adaptation, which was explicitly modelled as increase in the concentration necessary to achieve 50% maximal kill rate (C50k), using a saturable function of antimicrobial agent selective pressure (both meropenem concentration and time) (Eq. 36).
The experimental data derived from the time-kill studies were analysed by population analysis, using the non-parametric adaptive grid (NPAG) program (28). The killing profile observed with each meropenem concentration was input as a subject in the population analysis. The search algorithm sought the combination of parameter values and their distributions that would have the highest likelihood of explaining the observations made with all the meropenem concentrations in a single step (as opposed to fixing some parameter estimates sequentially while estimating the others). The explicit assumption was made that overall observation variance was proportional to variance of the measurement, i.e. quantitative cultures. The proportionality constant g was optimized with each cycle of the analysis.

[2] = system: amikacin resistant A. baumannii isolates; test: Resistance confirmation, repeat susceptibility testing, amikacin; type: cell-based, Acinetobacter baumannii; conditions: amikacin resistant isolates
Experimental: The media plates were incubated at 35° C. for up to 24 (total population) and 72 hours (sub-populations with reduced susceptibility), then bacterial density from each sample was enumerated visually. The theoretical lower limit of detection was 400 CFU/ml.

[3] = Mean of the parameter estimates

SMILES: C[C@@H](O)[C@H]1C(=O)N2C(C(=O)O)=C(S[C@@H]3CN[C@H](C(=O)N(C)C)C3)[C@H](C)[C@H]12 [meropenem]
- MIC ([1]; OprD− isolate used in vivo): 4 µg/mL (≈ 10.4 µM)
- MIC ([1]; strain MR1 (Placebo exposure, OprD−), macrobroth method): 4 µg/mL (≈ 10.4 µM)
- MIC ([1]; strain MR2 (Cmin/MIC 0.5, OprD− & Mex+), macrobroth method): 64 µg/mL (≈ 167 µM)
- MIC ([1]; strain MR3 (Cmin/MIC 1.7, OprD− & Mex+), macrobroth method, read-out: MIC): 32 µg/mL (≈ 83.4 µM)
- MIC ([1]; strain PA 27853, macrobroth method): 1 µg/mL (≈ 2.61 µM)
- stability of resistance ([1]; resistant isolates recovered from MEM-supplemented plates): phenotypically stable
- regrowth (P. aeruginosa ATCC 27853; 0.25 MIC and 1 MIC, between 12 and 24 h): Regrowth was observed
- Kg (P. aeruginosa ATCC 27853; [3]): 4.71 h − 1
- Kg (P. aeruginosa ATCC 27853; meropenem Concn 0.25 mg/L): 9.60 h − 1
- Kg (P. aeruginosa ATCC 27853; meropenem Concn 1 mg/L): 4.08 h − 1
- Kg (P. aeruginosa ATCC 27853; meropenem Concn 4 mg/L): 3.12 h − 1
- Kg (P. aeruginosa ATCC 27853; meropenem Concn 16 mg/L): 3.41 h − 1
- Kg (P. aeruginosa ATCC 27853; meropenem Concn 64 mg/L): 3.95 h − 1
- H (P. aeruginosa ATCC 27853; [3]): 2.83
- β (P. aeruginosa ATCC 27853; [3]): 5.85
- τ (P. aeruginosa ATCC 27853; [3]): 158 µL/min/mg
- MIC (P. aeruginosa ATCC 27853; Pseudomonas aeruginosa, ATCC27853, 24 h, validation time-kill, meropenem at 2 MIC, read-out: MIC of the entire bacterial population at 24 h): > 1 µg/mL
- EC50 (P. aeruginosa ATCC 27853; Pseudomonas aeruginosa, ATCC27853, Mean of the parameter estimates): 2.29 µg/mL
- EC50 (P. aeruginosa ATCC 27853; Pseudomonas aeruginosa, ATCC27853, meropenem Concn 0.25 mg/L): 0.44 µg/mL
- EC50 (P. aeruginosa ATCC 27853; Pseudomonas aeruginosa, ATCC27853, meropenem Concn 1 mg/L): 3.53 µg/mL
- EC50 (P. aeruginosa ATCC 27853; Pseudomonas aeruginosa, ATCC27853, meropenem Concn 4 mg/L): 0.74 µg/mL
- EC50 (P. aeruginosa ATCC 27853; Pseudomonas aeruginosa, ATCC27853, meropenem Concn 16 mg/L): 2.61 µg/mL
- EC50 (P. aeruginosa ATCC 27853; Pseudomonas aeruginosa, ATCC27853, meropenem Concn 64 mg/L): 2.9 µg/mL
- concentration necessary to attain 80% maximal kill rate (C80k) (P. aeruginosa ATCC 27853; at baseline): 3.8 mg/L
- concentration necessary to attain 90% maximal kill rate (C90k) (P. aeruginosa ATCC 27853; at baseline): 5.0 mg/L
- H (P. aeruginosa ATCC 27853; meropenem Concn 0.25 mg/L): 3.81
- β (P. aeruginosa ATCC 27853; meropenem Concn 0.25 mg/L): 3.79
- τ (P. aeruginosa ATCC 27853; meropenem Concn 0.25 mg/L): 350 µL/min/mg
- H (P. aeruginosa ATCC 27853; meropenem Concn 1 mg/L): 1.48
- β (P. aeruginosa ATCC 27853; meropenem Concn 1 mg/L): 6.64
- τ (P. aeruginosa ATCC 27853; meropenem Concn 1 mg/L): 183 µL/min/mg
- H (P. aeruginosa ATCC 27853; meropenem Concn 4 mg/L): 1.67
- β (P. aeruginosa ATCC 27853; meropenem Concn 4 mg/L): 4.48
- τ (P. aeruginosa ATCC 27853; meropenem Concn 4 mg/L): 115 µL/min/mg
- H (P. aeruginosa ATCC 27853; meropenem Concn 16 mg/L): 7.74
- β (P. aeruginosa ATCC 27853; meropenem Concn 16 mg/L): 4.85
- τ (P. aeruginosa ATCC 27853; meropenem Concn 16 mg/L): 85 µL/min/mg
- H (P. aeruginosa ATCC 27853; meropenem Concn 64 mg/L): 0.79
- β (P. aeruginosa ATCC 27853; meropenem Concn 64 mg/L): 8.70
- τ (P. aeruginosa ATCC 27853; meropenem Concn 64 mg/L): 23.3 µL/min/mg
- drop in bacterial burden at 24 h (P. aeruginosa ATCC 27853; meropenem concentrations 4 MIC (4 mg/L)): > 2 log
- concentration at which initial killing appeared maximized (P. aeruginosa ATCC 27853; time-kill): 4 MIC
- killing profile (P. aeruginosa ATCC 27853; time-kill): partially concentration-dependent
- regrowth (P. aeruginosa ATCC 27853; validation time-kill, meropenem at 2 MIC): regrowth
- regrowth (P. aeruginosa ATCC 27853; validation time-kill, meropenem at 32 MIC): no regrowth was observed
- cross-resistance [2]: not
